Reference: paper PMC12988607 (BMC Pharmacology & Toxicology, 2026)
Where two headings read alike, the source gives them in different places.

Columns and labels:
[1] = type: in vivo, healthy Chinese volunteers; conditions: for AUC(0-t): AUC0-t; for AUC(0-t) / AUC(0-inf) / Cmax / Tmax: geometric mean; for AUC(0-inf): AUC0-∞; for half-life: t1/2, geometric mean
[2] = test system: healthy Chinese volunteers; experiment: Urine PD parameters; type: in vivo; conditions: for urine-GLU: 0~4 h after 10 mg EMPA, p < 0.001
[3] = within 3 hours; cited from earlier work
[4] = cited from earlier work
[5] = test system: healthy Chinese volunteers; experiment: RAAS-related parameters; type: in vivo; conditions: for Ang II: after EMPA
[6] = test system: healthy Chinese volunteers; experiment: Blood PD parameters; type: in vivo; conditions: p < 0.05; for blood-GLU / insulin: fasting group; for blood-GLU: before EMPA (5.1 ± 0.4) mmol/L; for insulin: before EMPA (7.0 ± 3.7) mU/L
[7] = Fed (high-fat diet), single 10 mg EMPA
[8] = human, plasma, oral, 10 mg, Fasting, single 10 mg EMPA
[9] = human, plasma, oral, 10 mg, Fed (high-fat diet), single 10 mg EMPA

Compound: OC[C@H]1O[C@@H](c2ccc(Cl)c(Cc3ccc(O[C@H]4CCOC4)cc3)c2)[C@H](O)[C@@H](O)[C@@H]1O [EMPA, empagliflozin]
- Plasma concentrations Fasting/fed ([1]; 0.5 h after 10 mg EMPA): 3.00
- Plasma concentrations Fasting/fed ([1]; 1 h after 10 mg EMPA): 2.27
- Plasma concentrations Fasting/fed ([1]; 1.25 h after 10 mg EMPA): 1.92
- Plasma concentrations Fasting/fed ([1]; 1.5 h after 10 mg EMPA): 1.71
- Plasma concentrations Fasting/fed ([1]; 1.75 h after 10 mg EMPA): 1.68
- Plasma concentrations Fasting/fed ([1]; 2 h after 10 mg EMPA): 1.61
- Plasma concentrations Fasting/fed ([1]; 2.25 h after 10 mg EMPA): 1.62
- Plasma concentrations Fasting/fed ([1]; 2.75 h after 10 mg EMPA): 1.55
- Plasma concentrations Fasting/fed ([1]; 3 h after 10 mg EMPA): 1.55
- Plasma concentrations Fasting/fed ([1]; 4 h after 10 mg EMPA): 1.40
- Plasma concentrations Fasting/fed ([1]; 6 h after 10 mg EMPA): 1.36
- Plasma concentrations Fasting/fed ([1]; 8 h after 10 mg EMPA): 1.30
- Plasma concentrations Fasting/fed ([1]; 10 h after 10 mg EMPA): 1.24
- Plasma concentrations Fasting/fed ([1]; 12 h after 10 mg EMPA): 1.21
- Plasma concentrations Fasting/fed ([1]; 24 h after 10 mg EMPA): 1.09
- Plasma concentrations Fasting/fed ([1]; 36 h after 10 mg EMPA): 1.09
- Plasma concentrations Fasting/fed ([1]; 48 h after 10 mg EMPA): 1.03
- AUC_%Extrap, geometric mean ([1]; Fasting, single 10 mg EMPA): 1.80%
- AUC_%Extrap, geometric mean [1, 7]: 2.57%
- λz, geometric mean [1, 7]: 0.08 h⁻¹
- k el ([1]; human, plasma, oral, 10 mg): 2.22e-05 s⁻¹
- AUC(0-t) [1, 8]: 1310 ng·h/mL
- AUC(0-t) [1, 9]: 951 ng·h/mL
- AUC(0-inf) [1, 8]: 1330 ng·h/mL
- AUC(0-inf) [1, 9]: 978 ng·h/mL
- Cmax [1, 8]: 187 ng/mL
- Cmax [1, 9]: 113 ng/mL
- concentration at 1 h ([1]; human, plasma, oral, 10 mg, Plasma concentrations, Fasting (n = 56), 1 h after 10 mg EMPA): 166 ± 60.6 ng/mL
- concentration at 2 h ([1]; human, plasma, oral, 10 mg, Plasma concentrations, Fasting (n = 56), 2 h after 10 mg EMPA): 152 ± 27.3 ng/mL
- concentration at 3 h ([1]; human, plasma, oral, 10 mg, Plasma concentrations, Fasting (n = 56), 3 h after 10 mg EMPA): 123 ± 17.9 ng/mL
- concentration at 4 h ([1]; human, plasma, oral, 10 mg, Plasma concentrations, Fasting (n = 56), 4 h after 10 mg EMPA): 104 ± 16.4 ng/mL
- concentration at 6 h ([1]; human, plasma, oral, 10 mg, Plasma concentrations, Fasting (n = 56), 6 h after 10 mg EMPA): 72 ± 12.5 ng/mL
- concentration at 8 h ([1]; human, plasma, oral, 10 mg, Plasma concentrations, Fasting (n = 56), 8 h after 10 mg EMPA): 52.6 ± 9.1 ng/mL
- concentration at 10 h ([1]; human, plasma, oral, 10 mg, Plasma concentrations, Fasting (n = 56), 10 h after 10 mg EMPA): 40.4 ± 8.2 ng/mL
- concentration at 12 h ([1]; human, plasma, oral, 10 mg, Plasma concentrations, Fasting (n = 56), 12 h after 10 mg EMPA): 30.7 ± 6.5 ng/mL
- concentration at 24 h ([1]; human, plasma, oral, 10 mg, Plasma concentrations, Fasting (n = 56), 24 h after 10 mg EMPA): 10.1 ± 3 ng/mL
- concentration at 36 h ([1]; human, plasma, oral, 10 mg, Plasma concentrations, Fasting (n = 56), 36 h after 10 mg EMPA): 3.5 ± 1.4 ng/mL
- concentration at 48 h ([1]; human, plasma, oral, 10 mg, Plasma concentrations, Fasting (n = 56), 48 h after 10 mg EMPA): 2.2 ± 0.9 ng/mL
- concentration at 0.5 h ([1]; human, plasma, oral, 10 mg, Plasma concentrations, Fed (n = 58), high-fat diet, 0.5 h after 10 mg EMPA): 34.2 ± 31 ng/mL
- concentration at 1 h ([1]; human, plasma, oral, 10 mg, Plasma concentrations, Fed (n = 58), high-fat diet, 1 h after 10 mg EMPA): 72.9 ± 49.5 ng/mL
- concentration at 1.25 h ([1]; human, plasma, oral, 10 mg, Plasma concentrations, Fed (n = 58), high-fat diet, 1.25 h after 10 mg EMPA): 87.4 ± 39.2 ng/mL
- concentration at 1.5 h ([1]; human, plasma, oral, 10 mg, Plasma concentrations, Fed (n = 58), high-fat diet, 1.5 h after 10 mg EMPA): 95.7 ± 33.7 ng/mL
- concentration at 1.75 h ([1]; human, plasma, oral, 10 mg, Plasma concentrations, Fed (n = 58), high-fat diet, 1.75 h after 10 mg EMPA): 94.1 ± 28.1 ng/mL
- concentration at 2 h ([1]; human, plasma, oral, 10 mg, Plasma concentrations, Fed (n = 58), high-fat diet, 2 h after 10 mg EMPA): 94.2 ± 26.3 ng/mL
- concentration at 2.25 h ([1]; human, plasma, oral, 10 mg, Plasma concentrations, Fed (n = 58), high-fat diet, 2.25 h after 10 mg EMPA): 91.5 ± 22.6 ng/mL
- concentration at 2.75 h ([1]; human, plasma, oral, 10 mg, Plasma concentrations, Fed (n = 58), high-fat diet, 2.75 h after 10 mg EMPA): 83.9 ± 16 ng/mL
- concentration at 3 h ([1]; human, plasma, oral, 10 mg, Plasma concentrations, Fed (n = 58), high-fat diet, 3 h after 10 mg EMPA): 79.4 ± 15 ng/mL
- concentration at 4 h ([1]; human, plasma, oral, 10 mg, Plasma concentrations, Fed (n = 58), high-fat diet, 4 h after 10 mg EMPA): 74.4 ± 11.1 ng/mL
- concentration at 6 h ([1]; human, plasma, oral, 10 mg, Plasma concentrations, Fed (n = 58), high-fat diet, 6 h after 10 mg EMPA): 53.1 ± 8.8 ng/mL
- concentration at 8 h ([1]; human, plasma, oral, 10 mg, Plasma concentrations, Fed (n = 58), high-fat diet, 8 h after 10 mg EMPA): 40.5 ± 7.6 ng/mL
- concentration at 10 h ([1]; human, plasma, oral, 10 mg, Plasma concentrations, Fed (n = 58), high-fat diet, 10 h after 10 mg EMPA): 32.7 ± 6.7 ng/mL
- concentration at 12 h ([1]; human, plasma, oral, 10 mg, Plasma concentrations, Fed (n = 58), high-fat diet, 12 h after 10 mg EMPA): 25.4 ± 4.9 ng/mL
- concentration at 24 h ([1]; human, plasma, oral, 10 mg, Plasma concentrations, Fed (n = 58), high-fat diet, 24 h after 10 mg EMPA): 9.3 ± 1.8 ng/mL
- concentration at 36 h ([1]; human, plasma, oral, 10 mg, Plasma concentrations, Fed (n = 58), high-fat diet, 36 h after 10 mg EMPA): 3.2 ± 1.2 ng/mL
- concentration at 48 h ([1]; human, plasma, oral, 10 mg, Plasma concentrations, Fed (n = 58), high-fat diet, 48 h after 10 mg EMPA): 2.2 ± 0.8 ng/mL
- Tmax [1, 8]: 1.31 h
- Tmax [1, 9]: 1.67 h
- half-life [1, 8]: 8.18 h
- half-life [1, 9]: 8.34 h
- urine-GLU ([2]; fasting group (n = 19), before EMPA (0.3 ± 0.2) mmol/L): 70.9 ± 29.9 mmol/L
- β2-MG ([2]; fasting group, urine after EMPA, before EMPA (0.148 ± 0.054) mg/L, p < 0.05): 0.080 ± 0.065 mg/L
- α1-MG ([2]; fasting group, urine after EMPA, before EMPA (2.9 ± 1.7) mg/L, p < 0.05): 1.9 ± 1.8 mg/L
- α1-MG level, after vs before EMPA ([2]; fed group (EMPA post-meal), urine): did not show a significant difference
- urine-GLU ([2]; fed group (n = 23), before EMPA (0.3 ± 0.3) mmol/L): 89.6 ± 35.4 mmol/L
- urine-UA ([2]; fed group, after 4 h of EMPA administration, comparison value (2223.8 ± 891.1) mmol/L, p < 0.05): 2751.5 ± 1018.1 mmol/L
- β2-MG ([2]; fed group, urine after EMPA, before EMPA (0.145 ± 0.075) mg/L, p < 0.05): 0.094 ± 0.059 mg/L
- increase in urinary glucose excretion [3]: 27 times
- effect of a high-fat diet (HFD) on Cmax and AUC ([4]; 25 mg and 50 mg EMPA): reduce
- bioavailability [4]: poor
- time to reach Cmax [4]: 1.33 to 3.0 h
- ALD levels, after vs before EMPA ([5]; fasting group): no significant differences
- PRC ([5]; fasting group, 2 h after EMPA, before EMPA (37.3 ± 25.8) pg/mL, p < 0.05): 52.2 ± 28.2 pg/mL
- PRC ([5]; fasting group, 4 h after EMPA, before EMPA (37.3 ± 25.8) pg/mL, p < 0.05): 51.5 ± 23.7 pg/mL
- Ang II ([5]; fasting group, before EMPA (81.9 ± 9.9) pg/mL, p < 0.05): 88.2 ± 10.3 pg/mL
- ALD levels, after vs before EMPA ([5]; fed group): no significant differences
- PRC ([5]; fed group, 4 h after EMPA, before EMPA (32.5 ± 22.4) pg/mL, p = ns): 30.4 ± 18.9 pg/mL
- Ang II ([5]; fed group, before EMPA (91.6 ± 26.7) pg/mL, p < 0.05): 82.6 ± 23.3 pg/mL
- blood-GLU ([6]; 2 h after EMPA): 4.8 ± 0.3 mmol/L
- insulin ([6]; 2 h after EMPA): 5.0 ± 2.2 mU/L
- blood-GLU ([6]; 4 h after EMPA): 4.7 ± 0.3 mmol/L
- insulin ([6]; 4 h after EMPA): 4.7 ± 3.2 mU/L
- BUN ([6]; fed group, 4 h after EMPA, before EMPA (4.4 ± 1.0) mmol/L): 5.5 ± 1.0 mmol/L
- SCr ([6]; fed group, 4 h after EMPA, before EMPA (66.0 ± 8.4) mmol/L as printed): 71.5 ± 9.7 µmol/L
- eGFR ([6]; fed group, 4 h after EMPA, before EMPA (141.6 ± 22.0)): 128.3 ± 20.7 ml/min/1.73 m^2
- blood-UA ([6]; fed group, 4 h after EMPA, comparison value (369.2 ± 62.9) μmol/L): 342.6 ± 57.6 µmol/L
